Laboratory results as given in paper PMC3038857, “Using Nuclear Receptor Activity to Stratify Hepatocarcinogens” (PLoS ONE, 2011).
Read-outs that look alike come from different tables or passages of the source.

Legend:
PXR = assay: Aggregate nuclear receptor activity: PXR; design: species or system human
From the text: (§1) To summarize the activity of chemicals across the NR superfamily we aggregated the ToxCast assays for genes and NR groups as follows: retinoic X receptor-like (RXR; [drawing 5]; NR2B); peroxisome proliferator-activated receptor-like (PPAR; [drawing 6]; NR1C); constitutive androstane receptor ( [drawing 7]; [drawing 8]; [drawing 9] ); pregnane X receptor ( [drawing 10]; [drawing 11] ); liver X receptor-like (LXR; [drawing 12] , FXR; NR1H); and steroid receptor-like (SR; [drawing 13] , [drawing 14] , [drawing 15] ). These are shown visually in Figure 1(a). As there were differences in the number and types of assays for each group, aggregate activity was calculated as the average potency across the assays measured by the AC50 or LEC (described in Methods). This approach aggregated NR binding, activation, agonism or antagonism results into a single assessment of activity.
(§2) All data used in this analysis are publicly available from the ToxCast website (www.epa.gov/toxcast). The analysis was conducted using the R statistical language (www.r-project.org). For each chemical [drawing 77] , and assay [drawing 78] combination we derived either the AC50 (50% maximal activity concentration) or LEC (Lowest Effective Concentration) in [drawing 79] M denoted as, [drawing 80] . All chemicals are provided in Dataset S3 and all assays are given in Dataset S1. The procedure for evaluating the quality of [drawing 81] are described in the supplementary methods (Text S1) and all assay results are provided in Dataset S2. In order to facilitate comparison across the assays the [drawing 82] were transformed by the formula, [drawing 83] where [drawing 84] represents a the potency on an ascending scale, and [drawing 85] is the maximum concentration (lowest potency) across the data set.
(§3) The aggregate NR activity [drawing 86] , where [drawing 87] , was calculated using assays [drawing 88] . The aggregate scaled NR activity score for each chemical [drawing 89] was calculated as the average concentration value across the assays, scaled by the maximum value across all chemicals using Equation 1. [drawing 90] (1)

liver [1] = assay: Cancer lesion progression: 2-year chronic rat and mouse liver histopathology (ToxRefDB), lesion progression groups (LPG); details: liver lesions after 2-year chronic treatment, ToxRefDB data clustered into groups I-VIII
CAR = assay: Aggregate nuclear receptor activity: CAR; details: aggregate human NR activity, in words
From the text: as §1, §2, §3

AhR = assay: Aggregate nuclear receptor activity: AhR; details: aggregate human NR activity, in words
From the text: as §1, §2, §3

[2] = system: SR (steroid receptor-like); assay: Aggregate nuclear receptor activity: SR; details: aggregate human NR activity, in words
From the text: as §1, §2, §3

PPAR [3] = assay: Aggregate nuclear receptor activity: PPAR; details: aggregate human NR activity, in words
From the text: as §1, §2, §3

PPAR [4] = system: PPAR; design: method as in PMID 17084873; details: in rats; cited from earlier work
human PXR = system: human PXR; design: method as in PMID 16565514; details: cited from earlier work
liver [5] = details: in vivo
LXR = assay: Aggregate nuclear receptor activity: LXR; details: aggregate human NR activity, in words
From the text: as §1, §2
as §3, with “(1)” left out

SR = details: cited from earlier work
[6] = system: AhR, CAR, PXR, PPAR, LXR, SR and RXR
[7] = system: cytochrome P-450 in the 2B subfamily; details: mouse, in vivo; cited from earlier work
[8] = aggregate human NR activity, in words

SMILES | activity with PXR (PXR; [8]) | activity with CAR (CAR) | activity with AhR (AhR) | activity with SR [2] | activity with PPAR (PPAR [3]) | lesion progression group (LPG) (liver [5]) | other results
COC(=O)C(C)Oc1ccc(Oc2ccc(Cl)cc2Cl)cc1 (stereo not shown) [Diclofop-methyl, methyl 2-[4-(2,4-dichlorophenoxy)phenoxy]propanoate] | some activity | some activity | some activity | some activity | most consistently active | – | lesion progression group (LPG) (liver [1]): I; PPAR activity (PPAR [4]): active
CC(C)Oc1cc(-n2nc(C(C)(C)C)oc2=O)c(Cl)cc1Cl [Oxadiazon, 5-tert-butyl-3-(2,4-dichloro-5-isopropoxyphenyl)-1,3,4-oxadiazol-2(3H)-one] | consistently active | consistently active | consistently active | less frequently | less frequently | I | human PXR activity (human PXR): known human PXR activity; activity with LXR (LXR): less frequently
Cl[C@H]1[C@H](Cl)[C@@H](Cl)[C@@H](Cl)[C@H](Cl)[C@H]1Cl [Lindane, (1r,2R,3S,4r,5R,6S)-1,2,3,4,5,6-hexachlorocyclohexane] | active | – | active | – | – | Lindane | –
CNC(=O)Oc1cccc2ccccc12 [Carbaryl, naphthalen-1-yl methylcarbamate] | – | – | – | – | – | – | SR activity (SR): activity
N#Cc1c[nH]cc1-c1cccc2c1OC(F)(F)O2 [Fludioxonil, 4-(2,2-difluoro-1,3-benzodioxol-4-yl)-1H-pyrrole-3-carbonitrile] | consistently active | – | – | less frequently | less frequently | – | activity with LXR (LXR): less frequently
CCCCOC(=O)c1ccccc1C(=O)OCCCC [Dibutyl phthalate, dibutyl phthalate] | – | – | – | – | – | – | overall NR activity [6]: low NR activity
CC[C@H](C)[C@H]1O[C@]2(C=C[C@@H]1C)C[C@@H]1C[C@@H](C/C=C(\C)[C@@H](O[C@H]3C[C@H](OC)[C@@H](O[C@H]4C[C@H](OC)[C@@H](NC)[C@H](C)O4)[C@H](C)O3)[C@@H](C)/C=C/C=C3\CO[C@@H]4[C@H](O)C(C)=C[C@@H](C(=O)O1)[C@]34O)O2.O=C(O)c1ccccc1 [Emamectin benzoate, (2aE,4E,5\S,6S,6\R,7S,8E,11R,13S,15S,17aR,20R,20aR,20bS)-20,20b-dihydroxy-5\,6,8,19-tetramethyl-6\-[(1S)-1-methylpropyl]-17-oxo-5\,6,6\,10,11,14,15,17,17a,20,20a,20b-dodecahydro-2H,7H-spiro[11,15-methanofuro[4,3,2-pq][2,6]benzodioxacyclooctadecine-13,2\-pyran]-7-yl 2,6-dideoxy-3-O-methyl-4-O-[2,4,6-trideoxy-3-O-methyl-4-(methylammonio)-a-L-arabino-hexopyranosyl]-a-L-arabino-hexopyranoside benzoate] | – | – | – | – | – | Emamectin benzoate | –
CCOC(=O)CC(SP(=S)(OC)OC)C(=O)OCC (stereo not shown) [Malathion, diethyl 2-[(dimethoxyphosphorothioyl)thio]succinate] | some activity | some activity | some activity | some activity | most consistently active | – | SR activity (SR): known SR activity
CS(=O)(=O)c1cc(C(F)(F)F)ccc1C(=O)c1cnoc1C1CC1 [Isoxaflutole, (5-cyclopropylisoxazol-4-yl)[2-(methylsulfonyl)-4-(trifluoromethyl)phenyl]methanone] | – | – | – | – | – | I | –
C=CC1(C)OC(=O)N(c2cc(Cl)cc(Cl)c2)C1=O (stereo not shown) [Vinclozolin, 3-(3,5-dichlorophenyl)-5-methyl-5-vinyl-1,3-oxazolidine-2,4-dione] | – | – | some activity | some activity | most consistently active | I | activity with PXR (PXR): some activity; SR activity (SR): known SR active
CCOC(=O)C(C)OC(=O)c1cc(Oc2ccc(C(F)(F)F)cc2Cl)ccc1[N+](=O)[O-] (stereo not shown) [Lactofen, 2-ethoxy-1-methyl-2-oxoethyl 5-[2-chloro-4-(trifluoromethyl)phenoxy]-2-nitrobenzoate] | – | consistently active | consistently active | less frequently | less frequently | I | activity with PXR (PXR): consistently active; activity with LXR (LXR): less frequently
CC(C1CC1)C(O)(Cn1cncn1)c1ccc(Cl)cc1 (stereo not shown) [Cyproconazole, 2-(4-chlorophenyl)-3-cyclopropyl-1-(1H-1,2,4-triazol-1-yl)butan-2-ol] | – | – | – | – | – | – | expression of a cytochrome P-450 in the 2B subfamily [7]: induce expression
